{"source": "patent US11292803B2", "about": "“Bioreducible N-oxide-based probes for imaging of hypoxia” (THE BOARD OF TRUSTEES OF THE UNIVERSITY OF ILLINOIS, priority 2018, dated 2022)", "key": {"[1]": {"system": "4T1 tumour allografts", "test": "In vivo fluorescence imaging of hypoxic tumour model", "parameters": "species or system BALB/c mice", "conditions": "intratumoural injection 50 μL, 100 μM; after 1 hour", "protocol": "Tumour allografts were generated via subcutaneous implantation of 4T1 cells into the right flanks of BALB/c mice. The tumours were allowed to grow to volumes of 300-400 mm^3 prior to imaging. As an initial study to visualize the intratumoural conversion of HyP-1 to red-HyP-1 in real time, ratiometric fluorescence imaging was performed immediately following administration of HyP-1 (50 μL, 100 μM) via intratumoural or subcutaneous (control) injection.\nAll in vivo imaging experiments were performed with the approval of the Institutional Animal Care and Use Committee of the University of Illinois at Urbana-Champaign, following the principles outlined by the American Physiological Society on research animal use. Female mice (5-6 weeks old) were acquired from The Jackson Laboratory. A suspension of 0.5×10^6 cells in serum-free medium containing 50% v/v matrigel (100 μL) was subcutaneously injected into the right flank of each mouse. Tumours with volumes of 300-400 mm^3 formed after 12-15 days. […]\n(§1) Images were obtained using epi-fluorescence with excitation filters of 675 and 745 and corresponding emission filters of 720 and 800, respectively. […] ROIs of equal area were drawn around signals, and the total radiant efficiency in each ROI was determined. Ratiometric signal was calculated by determining the ratio of radiant efficiency corresponding to 800 nm and 720 nm emissions."}, "[2]": {"test": "Response of probe to Fe(II)", "protocol": "FIG. 8. Ratiometric fluorescence turn-on response of HyP-1 (2 μM) in the presence of FeSO4 (20 μM) and FeSO4 (20 μM)+GSH (1 mM) in 50 mM HEPES buffer (pH 7.4, 0.1% v/v CrEL) after 1 h incubation at 37° C.\nFe(II)-mediated reduction of N-oxides has been exploited previously for the development of several fluorescent probes for this metal ion, thus it was critical for us to determine the response of HyP-1 to Fe(II). […] However, because intracellular concentrations of free iron are low due to sequestration by ferritin, this was not anticipated to be a major source of HyP-1 activation in vivo."}, "[3]": {"test": "Stability in human plasma", "format": "in vitro ADME", "conditions": "10 μM solution supplemented with human plasma, 37° C., 3 hours", "protocol": "FIG. 12. Fluorescence intensity (Ex.=670 nm) of HyP-1 (2 μM) at the indicated time points during incubation in 0.1 M potassium phosphate buffer (pH 7.4) supplemented with human plasma (20% v/v) at 37° C. for 3 h.\n(§2) In addition to Fe(II), the response of HyP-1 to a variety of alkali, alkaline earth and transition metals was also determined. […] To further evaluate the stability of HyP-1, a 10 μM solution of the probe was exposed to ambient light and temperature for up to 5 days. Additionally, a 10 μM solution of HyP-1 supplemented with human plasma was incubated at 37° C. for 3 hours. […] As mentioned previously, a major limitation of 2-nitroimidazole-based hypoxia probes is their susceptibility to oxygen-independent reduction via two-electron processes, such as by bacterial nitroreductases. […] Finally, the photostability of both HyP-1 and red-HyP-1 was evaluated via continuous PA image acquisition at 770 nm over the course of 1 hour."}, "[4]": {"system": "ischemic hindlimb tissue", "test": "In vivo fluorescence imaging of hindlimb ischemia model", "parameters": "species or system BALB/c mice", "conditions": "intramuscular 50 μL, 50 μM; over 1 hour", "protocol": "To visualize the response of HyP-1 in a model of rapidly developing hypoxia, a murine hindlimb ischemia model of peripheral artery disease was employed. Ischemia was induced in the right hindlimb of BALB/c mice via ligation of the femoral artery. […] After a 1-hour recovery period, HyP-1 (50 μL, 50 μM) was administered via intramuscular injection into both hindlimbs of the mouse. To visualize the time-dependent response of HyP-1 in the ischemic and non-ischemic tissue, ratiometric fluorescence imaging was performed over the course of 1 hour immediately following injection. […]\nAll in vivo imaging experiments were performed with the approval of the Institutional Animal Care and Use Committee of the University of Illinois at Urbana-Champaign, following the principles outlined by the American Physiological Society on research animal use. […] Animals that underwent unsuccessful surgery as determined by laser Doppler perfusion imaging were excluded from analysis.\nas §1"}, "[5]": {"system": "purified bacterial nitroreductase", "test": "Incubation with purified nitroreductase", "format": "biochemical", "conditions": "NADH, 37° C., 2 h", "protocol": "FIG. 15. […] For the nitroreductase experiment, HyP-1 (2 μM) was incubated in the presence of nitroreductase (0.5 μg/mL) and NADH (100 μM) in 0.1 M potassium phosphate buffer (pH 7.4) at 37° C. for 2 h. For the bacterial experiment, bacteria were grown overnight, and cells were lysed via sonication. The suspension was centrifuged at 4000 rpm for 10 min, and the supernatant was removed. HyP-1 (2 μM) was incubated with cell lysate solution (1 mL) at 37° C. for 2 h.\nas §2"}}, "data": [{"compound": "CC[N+]([O-])(CC)c1ccc(-c2cc(-c3ccccc3)c3n2[B-](F)(F)[N+]2=C(c4ccc(OC)cc4)C=C(c4ccccc4)C2=N3)cc1", "note": "[HyP-1, 4-(5,5-difluoro-7-(4-methoxyphenyl)-1,9-diphenyl-5H-5λ^4,6λ^4-dipyrrolo[1,2-c:2′,1′-f][1,3,5,2]triazaborinin-3-yl)-N,N-diethylaniline oxide]", "values": [{"measurement": "ratiometric fluorescent turn-on, tumour tissue versus subcutaneous control", "setting": "[1]", "result": 5.6, "unit": "fold"}, {"measurement": "ratiometric turn-on", "setting": "[2]; 20 μM FeSO4 + 1 mM GSH, HEPES buffer, 1 h", "result": 35, "unit": "fold"}, {"measurement": "ratiometric turn-on", "setting": "[2]; 20 μM FeSO4 in HEPES buffer, 1-hour incubation", "result": 8, "unit": "fold"}, {"measurement": "decomposition in human plasma", "setting": "[3]", "result": "no substantial decomposition"}, {"measurement": "ratiometric signal, ischemic tissue versus control", "setting": "[4]", "result": 3, "unit": "fold"}, {"measurement": "conversion to red-HyP-1", "setting": "[5]", "result": "minimal conversion"}]}]}
